What was measured:
[1] = target: T1, FabG1 (XCC1018) (Xanthomonas campestris, UniProt Q8PBU9); test: NADPH absorbance decrease at […] nm; assay type: biochemical; conditions: hydride donor; 3-oxodecanoyl-ACP generated in situ by E. coli FabD and FabB from acyl-ACP and malonyl-CoA
T1 construct: gene fabG; full length, pET-28(b) construct (His tag), E. coli BL21(DE3)

[2] = target: T2, X. campestris pv. campestris FabH (Xanthomonas campestris, UniProt Q8PBV1); test: coupled reaction, MALDI-TOF MS of acyl-ACP products; assay type: biochemical; conditions: co-substrate malonyl-ACP; with FabG1 or FabG2 and E. coli FabA
T2 construct: purification and tag of this protein not described in the main text
T2 sequence (Q8PBV1 whole entry): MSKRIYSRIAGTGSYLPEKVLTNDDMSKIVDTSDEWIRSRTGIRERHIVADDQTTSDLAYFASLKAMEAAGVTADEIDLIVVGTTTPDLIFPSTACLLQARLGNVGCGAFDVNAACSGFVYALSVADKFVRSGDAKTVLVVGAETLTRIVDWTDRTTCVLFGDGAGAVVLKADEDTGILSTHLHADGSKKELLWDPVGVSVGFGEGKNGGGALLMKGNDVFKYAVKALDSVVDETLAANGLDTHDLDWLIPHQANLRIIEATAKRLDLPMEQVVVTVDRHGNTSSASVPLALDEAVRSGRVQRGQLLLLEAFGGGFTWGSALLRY

T1 sequence (Q8PBU9 entry or part of it): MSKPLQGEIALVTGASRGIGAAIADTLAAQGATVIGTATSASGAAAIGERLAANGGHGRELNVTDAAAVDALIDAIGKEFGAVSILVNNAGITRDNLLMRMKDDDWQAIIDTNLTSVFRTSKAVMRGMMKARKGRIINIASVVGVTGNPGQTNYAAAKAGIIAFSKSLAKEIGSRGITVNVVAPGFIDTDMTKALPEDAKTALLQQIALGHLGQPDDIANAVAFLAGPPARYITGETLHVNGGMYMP

Row | SMILES | NADPH absorbance decrease at 340 nm [1] | coupled reaction, MALDI-TOF MS of acyl-ACP products [2]
1 | NC(=O)C1=CN([C@@H]2O[C@H](COP(=O)(O)OP(=O)(O)OC[C@H]3O[C@@H](n4cnc5c(N)ncnc54)[C@H](OP(=O)(O)O)[C@@H]3O)[C@@H](O)[C@H]2O)C=CC1 [NADPH] | The maximal rate of NADPH reduction of 3-oxodecanoyl-ACP by FabG2 | –
2 | CCCCCCCC(=O)SCCNC(=O)CCNC(=O)[C@H](O)C(C)(C)COP(=O)(O)OP(=O)(O)OC[C@H]1O[C@@H](n2cnc3c(N)ncnc32)[C@H](O)[C@@H]1OP(=O)(O)O [octanoyl-CoA] | – | X. campestris pv. campestris FabH, octanoyl-CoA, and malonyl-ACP replaced octanoyl-ACP

From PMC5941067, “Novel Xanthomonas campestris Long-Chain-Specific 3-Oxoacyl-Acyl Carrier Protein Reductase Involved in Diffusible Signal Factor Synthesis” (mBio, 2018)
